Data reported in US12303479B2, “Chloride intracellular channel 1 for regulation of food intake” (The Regents of the University of California, priority 2019, dated 2025).

Assays:
Clic1 [1] = target: T1, Clic1 (Mus musculus, UniProt Q9Z1Q5); assay: Fasting and re-feeding model: food intake and hypothalamic neuropeptide expression after acute IAA94; type: in vivo, mice; set-up: endogenous in cells; host or cells: whole live mice (C57B16 WT in the 7-day study); hypothalamus discussed as the site of action
Experimental: To determine whether the modulation of Clic1 directly affected food intake, mice were treated with a specific Clic1 inhibitor, IAA94^11. Mice were fasted for 23 hours and then treated with either vehicle or IAA94 (50 mg/kg IP) and then re-fed for 1 hour. […] No changes in AgRP or Cart expression were detected.
FIGS. 1A-1C show the role of Clic1 in food intake.
FIGS. 5A-5C show acute studies in which Clic1 inhibition decreases food intake. HET/KO mice are viable, fertile and appear normal. Floxed mice are available at PMID: 20049953 Sydney. […] Male mice were injected with IAA94 (50 mg/kg) or vehicle and then refed. IAA94 (indanyloxyacetic acid 94) is a Clic1 inhibitor that blocks channels and has enzymatic properties.

Clic1 [2] = target: T1, Clic1; assay: Chronic Clic1 inhibition in diet-induced obese high fat diet-fed mice, 7 days; type: in vivo, C57B16 WT mice; set-up: endogenous in cells; host or cells: whole live mice (C57B16 WT in the 7-day study); hypothalamus discussed as the site of action; settings: IAA94 50 mg/kg IP daily
Experimental: Diet-induced obese mice (fed high fat diet for 6 weeks) were injected with IAA94 (50 mg/kg, IP, daily) or vehicle. Their daily food intake and body weight were monitored. Sacrifices were performed on day 7. […] On day 7 mice were fasted for 5 hours and then treated with IAA94 or VEH and then blood collected one hour later for measurement of leptin (FIG. 7C) GDF-15 (FIG. 7D) insulin (FIG. 7E), and glucose (FIG. 7F). FIGS. 7G-7J show hypothalamic neuropeptide levels determined by quantitative PCR detection. In FIGS. 7A-7B, P<0.05 repeated measures one-way ANOVA with Sidak's multiple comparisons test. In FIGS. 7C-7J, P<0.05 students t-test.

Clic1 [3] = target: T1, Clic1; assay: Chronic IAA94 treatment in diet-induced obese mice, 23 days, alone or with Lira; type: in vivo; set-up: endogenous in cells; host or cells: whole live mice (C57B16 WT in the 7-day study); hypothalamus discussed as the site of action; settings: daily injections, FIG. 8A
Experimental: FIGS. 8A-8I show another study on chronic IAA94 treatment. Diet-induced obese mice (fed a high fat diet for 6 weeks) received daily injections of either i) vehicle, ii) IAA94—10 mg/kg, iii) IAA94—50 mg/kg, iv) Lira, or v) combination of Lira+IAA94 (50 mg/kg). Daily food intake and body weight were monitored. Sacrifices were performed after 23 days.

Clic1 [4] = target: Clic1 (Homo sapiens, UniProt O00299); settings: cited from earlier work
[5] = mice fasted 23 hours, IAA94 50 mg/kg IP, re-fed for 1 hour

Row | hyperphagia in response to refeeding (Clic1 [1]; IAA94 50 mg/kg, FIG. 1C) | food intake versus amount of IAA94 administered (Clic1 [1]; male mice, fasting and re-feeding model, FIG. 5C) | AgRP expression (hypothalamic) (Clic1 [1]; [5]) | Cart expression (hypothalamic) (Clic1 [1]; [5]) | Pome expression (hypothalamic) (Clic1 [1]; [5]) | hypothalamic levels of Npy (Clic1 [1]; [5]) | reduction of food intake compared with vehicle treated mice (Clic1 [1]; [5]) | food intake (Clic1 [2]; 7 days) | reduction of body weight (Clic1 [2]; one week) | weight loss on chronic treatment (Clic1 [3]) | SMILES | inhibition of Clic1 (Clic1 [4])
1 | decreased hyperphagia | dose dependent | No changes | No changes | increased | significant reduction | ~50% | significant reduction in food intake | ~12% | significant weight loss | C[C@]1(C2CCCC2)Cc2cc(OCC(=O)O)c(Cl)c(Cl)c2C1=O [IAA94, R(+)-[(6,7-Dichloro-2-cyclopentyl-2,3-dihydro-2-methyl-1-oxo-1H-inden-5-yl)-oxy]acetic acid] | 
2 |  |  |  |  |  |  |  |  |  |  | CN(C)C(=N)NC(=N)N [metformin, N,N-dimethylbiguanide] | inhibits Clic1
